{"source": "paper PMC6934184", "about": "“Selective DNA-PKcs inhibition extends the therapeutic index of localized radiotherapy and chemotherapy” (The Journal of Clinical Investigation, 2019)", "target": "T1, PIM2 (Homo sapiens, UniProt Q9P1W9)", "T1 construct": "purchased Thermo Fisher Scientific (Life Technologies) SelectScreen", "T1 sequence (Q9P1W9 whole entry)": "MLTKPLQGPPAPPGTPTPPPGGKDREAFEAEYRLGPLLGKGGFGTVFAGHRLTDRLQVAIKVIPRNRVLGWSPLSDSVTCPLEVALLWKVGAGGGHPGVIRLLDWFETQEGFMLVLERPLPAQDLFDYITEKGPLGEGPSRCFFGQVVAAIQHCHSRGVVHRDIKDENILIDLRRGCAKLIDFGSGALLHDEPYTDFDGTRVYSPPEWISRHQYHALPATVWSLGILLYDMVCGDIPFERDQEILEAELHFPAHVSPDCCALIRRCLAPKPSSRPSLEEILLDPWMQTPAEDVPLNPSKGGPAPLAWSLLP", "test": "SelectScreen Z'LYTE", "type": "biochemical", "summary_of_the_method": "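NU5455 was profiled across the SelectScreen Broad panel of kinase activity and binding assays. Z'LYTE reactions such as CSF1R ran at apparent Km ATP, while the Adapta CAMK1 assay used ATP listed as 10. Values are given as percent.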"}
{"smiles": "CN(C(=O)CN1CCOCC1)c1ccc2sc3c(-c4cccc5c(=O)cc(N6CC7CCC(C6)O7)oc45)cccc3c2c1", "note": "[NU5455]", "values": [{"measurement": "inhibition at 1 µM", "value": -4.3, "unit": "%"}]}
